According to patent US9295638B2, “Prevention and treatment of cardiovascular diseases using systems and methods for transdermal nitric oxide delivery” (priority 2012, dated 2016):

Key:
[1] = Nitric oxide absorption by carriers (weight gain on bubbling NO gas); format: physicochemical; settings: NO gas bubbled 40 hr, 25 °C
Description: This example illustrates one technique for preparing a composition in accordance with one embodiment of the invention. An accurate amount of a carrier (HNC 167-62) (see below) was introduced into a system. The carrier weight used in these experiments was approximately 250 g and the vessel size was 500 ml. The vessel was equipped with a mechanical stirrer, gas inlet, and gas outlet and was previously purged with argon for about an hour. The temperature of the carrier was kept at about 25-30° C. NO gas regulated at 5 psi (1 psi is about 6,900 Pa) and was then introduced at a controlled rate of about 1 bubble/s with continuous stirring. […] After 6 hours, the weight of the carrier had increased by 0.15%, by 12 hours by 0.25%, and by 24 hours by 0.56%. These increases in weight were believed to be significant considering the relative small molecular weight of NO versus the carrier. […] The carrier also can solidify upon cooling if the carrier is initially a solid at lower temperature.
Each carrier was taken in a 500 mL three necked flask equipped with a mechanical stirrer, gas inlet and a gas outlet. The system was purged with argon for one hour at room temperature (25° C.). Then nitric oxide gas was bubbled into the system. Then, nitric oxide gas was bubbled through carrier for stipulated amount of time. The changes in weight and color were noted. […]

[2] = system: micro-capillary blood flow to skin; assay: Laser Doppler capillary blood flow in humans, 10,000 ppm NO in closed chamber (Example 6); format: in vivo; settings: applied to the skin at 1/10% in alcohol
Source text: The formulation used in these studies contained nitric oxide dispersed in a lipid matrix. […] Nitric oxide is a very rapid acting molecule, and these studies used a system that employed laser Doppler with a covered chamber. The formulation was placed into the chamber and then attached to the skin by an adhesive layer on the covering. This provided a stable measuring device as determined by multiple normal evaluations of the capillary blood flow without treatment of nitric oxide.
A known positive control, methyl nicotinate, was applied to the skin at a concentration of 1/10% in alcohol. […] The vascular dynamics are such that when the blood vessels dilate physical parameters follow Bernoulli's law. This states that as one increases the diameter of a tube containing a liquid to flow will increase but the pressure and the speed of the liquid will decrease. The laser Doppler device accurately measured these parameters.
The test product was labeled as 10,000 ppm NO (nitric oxide). The study participants had 100 mg of the test product applied in a closed Hilltop chamber on the forearm. […]
A Moor Instruments DRT4 Laser Doppler Blood Flow Monitor (Devon, England) was used in these studies. The laser Doppler technique measured blood flow in the microcapillaries of the skin that are close to the skin surface and the blood flow in underlying arterioles and venules that help to regulate skin temperature. […]

[3] = system: capillary circulation of the skin; assay: Laser Doppler circulation in five human subjects (Example 8); format: in vivo; settings: positive control formulation containing 0.1% methyl nicotinate
Source text: This example illustrates delivery of nitric oxide formulations to five human subjects, using procedures and formulations similar to those discussed in Example 6. Each person served as their own control for the testing. A Moor Instruments Laser Doppler was used to determine circulation. […] The formulations used produce positive, almost immediate results when applied to the skin which, in these studies, was manifested by vasodilatation of the cutaneous vascular system.
For each subject, the following creams were applied: a negative control formulation (containing no NO), 0.010 gram of a 10,000 ppm NO formulation, 0.020 gram of a 10,000 ppm NO formulation, and a positive control formulation containing 0.1% methyl nicotinate. The formulations were prepared using procedures similar to those discussed in Example 1.

Compound	% Wt. gain [1]	laser Doppler response of positive control [2]	vasodilatation [3]
OCCCO [1,3-Propanediol, 1,3-propanediol]	0.09%		
COC(=O)c1cccnc1 [methyl nicotinate]		rapid response typical of the vasodilator	vasodilatation was observed
